Columns and labels:
SMYD3 [1] = molecular target: T1, SMYD3 (Homo sapiens (Human), UniProt Q9H7B4); experiment: SMYD3 cell assay (Trimethyl-MEKK2 In-Cell Western in 293T/17 cells); type: cell-based; settings: read-out: SMYD3 Cell IC50*
Procedure, shortened: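 In-Cell Western readout: methanol-fixed cells stained for trimethyl-MEKK2 and flag tag, ratio per well normalized to DMSO and background controls.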

SMYD3 [2] = molecular target: T1, SMYD3; experiment: SMYD3 biochemical assay (SPA, 3H-SAM methylation of MEKK2 protein substrate); settings: read-out: SMYD3 Biochem IC50*
Procedure, shortened: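 SPA methyltransferase format: tag-cleaved human SMYD3, insect-cell GST-MEKK2 protein substrate, 3H-SAM donor, 30 min RT enzyme–compound preincubation, 100 uM cold SAM quench.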

T1 sequence (Q9H7B4 whole entry): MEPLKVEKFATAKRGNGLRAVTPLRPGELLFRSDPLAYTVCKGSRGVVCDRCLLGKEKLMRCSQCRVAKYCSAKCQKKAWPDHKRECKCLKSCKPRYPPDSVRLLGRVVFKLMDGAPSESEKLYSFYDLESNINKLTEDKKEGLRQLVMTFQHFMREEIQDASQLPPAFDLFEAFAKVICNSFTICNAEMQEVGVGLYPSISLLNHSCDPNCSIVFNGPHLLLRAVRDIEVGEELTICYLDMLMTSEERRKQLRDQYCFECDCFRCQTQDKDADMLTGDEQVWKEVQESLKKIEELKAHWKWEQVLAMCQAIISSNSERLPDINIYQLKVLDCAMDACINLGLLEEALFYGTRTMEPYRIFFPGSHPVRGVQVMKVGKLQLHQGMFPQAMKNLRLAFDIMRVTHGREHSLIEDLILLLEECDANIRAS

| Structure (SMILES) | IC50 (SMYD3 [1]) [nM] | IC50 (SMYD3 [2]) [nM] |
| --- | --- | --- |
| CNC1CCC(CS(=O)(=O)N2CC[C@H](NC(=O)c3cc(C4CC4)on3)C[C@@H]2C)C1 (stereo partly drawn) [compound 802, 5-cyclopropyl-N-((2S,4S)-2-methyl-1-(((3-(methylamino)cyclopentyl)methyl)sulfonyl)piperidin-4-yl)isoxazole-3-carboxamide] | 27 | 2.3 |
| CC1CC(N)CCN1S(=O)(=O)N1[C@@H]2CC[C@H]1C[C@@H](NC(=O)c1cc(C3CC3)on1)C2 (stereo partly drawn) [compound 803, N-((1R,3r,5S)-8-((4-amino-2-methylpiperidin-1-yl)sulfonyl)-8-azabicyclo[3.2.1]octan-3-yl)-5-cyclopropylisoxazole-3-carboxamide] | 59 | 2.31 |
| C[C@H]1C[C@@H](NC(=O)c2cc(C3CC3)on2)CCN1S(=O)(=O)N1CCC2(CCCN2)CC1 [compound 804, N-((2S,4S)-1-((1,8-diazaspiro[4.5]decan-8-yl)sulfonyl)-2-methylpiperidin-4-yl)-5-cyclopropylisoxazole-3-carboxamide] | 60.8 | 2.36 |
| CN(C)C1CCN(S(=O)(=O)N2[C@@H]3CC[C@H]2C[C@@H](NC(=O)c2cc(C4CC4)on2)C3)CC1 [compound 805, 5-cyclopropyl-N-((1R,3r,5S)-8-((4-(dimethylamino)piperidin-1-yl)sulfonyl)-8-azabicyclo[3.2.1]octan-3-yl)isoxazole-3-carboxamide] | 53.2 | 2.39 |
| CCC[C@H]1C[C@@H](NC(=O)c2cc(C3CC3)on2)CCN1S(=O)(=O)CCCN [compound 806, N-((2S,4S)-1-((3-aminopropyl)sulfonyl)-2-propylpiperidin-4-yl)-5-cyclopropylisoxazole-3-carboxamide] | 113 | 2.4 |
| CN(C)[C@H]1CC[C@H](S(=O)(=O)N2[C@@H]3CC[C@H]2C[C@@H](NC(=O)c2cc(C4CC4)on2)C3)CC1 [compound 807, 5-cyclopropyl-N-((1R,3R,5S)-8-(((1r,4R)-4-(dimethylamino)cyclohexyl)sulfonyl)-8-azabicyclo[3.2.1]octan-3-yl)isoxazole-3-carboxamide] | 85.7 | 2.44 |
| C[C@H]1C[C@@H](NC(=O)c2cc(C3CC3)on2)CCN1S(=O)(=O)N1CCC(NCCO)CC1 [compound 808, 5-cyclopropyl-N-((2S,4S)-1-((4-((2-hydroxyethyl)amino)piperidin-1-yl)sulfonyl)-2-methylpiperidin-4-yl)isoxazole-3-carboxamide] | 36.8 | 2.47 |
| CC(C)CN1CCC(CS(=O)(=O)N2[C@@H]3CC[C@H]2C[C@@H](NC(=O)c2cc(C4CC4)on2)C3)CC1 [compound 809, 5-cyclopropyl-N-((1R,3r,5S)-8-(((1-isobutylpiperidin-4-yl)methyl)sulfonyl)-8-azabicyclo[3.2.1]octan-3-yl)isoxazole-3-carboxamide] | 42.7 | 2.49 |
| O=C(N[C@H]1C[C@H]2CC[C@@H](C1)N2S(=O)(=O)N1CCC(NCc2ccccc2)CC1)c1cc(C2CC2)on1 [compound 810, N-((1R,3r,5S)-8-((4-(benzylamino)piperidin-1-yl)sulfonyl)-8-azabicyclo[3.2.1]octan-3-yl)-5-cyclopropylisoxazole-3-carboxamide] | 72.2 | 2.53 |
| CCc1cc(C(=O)N[C@H]2CCN(S(=O)(=O)c3ccc(C(C)(C)N)cc3)[C@@H](C)C2)no1 [compound 811, N-((2S,4S)-1-((4-(2-aminopropan-2-yl)phenyl)sulfonyl)-2-methylpiperidin-4-yl)-5-ethylisoxazole-3-carboxamide] | 33.6 | 2.58 |
| CNC1CCN(S(=O)(=O)N2[C@@H]3CC[C@H]2C[C@@H](NC(=O)c2cc(C4CC4)on2)C3)CC1 [compound 812, 5-cyclopropyl-N-((1R,3r,5S)-8-((4-(methylamino)piperidin-1-yl)sulfonyl)-8-azabicyclo[3.2.1]octan-3-yl)isoxazole-3-carboxamide] | 41.1 | 2.65 |
| C[C@H]1C[C@@H](NC(=O)c2cc(C3CC3)on2)CCN1S(=O)(=O)N1CCC2(CCN2)CC1 [compound 813, N-((2S,4S)-1-((1,7-diazaspiro[3.5]nonan-7-yl)sulfonyl)-2-methylpiperidin-4-yl)-5-cyclopropylisoxazole-3-carboxamide] | 35.7 | 2.73 |
| C[C@H]1C[C@@H](NC(=O)c2cc(C3CC3)on2)CCN1S(=O)(=O)CC[C@H]1CCN(C)C1 [compound 814, 5-cyclopropyl-N-((2S,4S)-2-methyl-1-((2-((R)-1-methylpyrrolidin-3-yl)ethyl)sulfonyl)piperidin-4-yl)isoxazole-3-carboxamide] | 44.2 | 2.77 |
| CCc1cc(C(=O)N[C@H]2C[C@H]3CC[C@@H](C2)N3S(=O)(=O)[C@H]2CC[C@@H](N)CC2)no1 [compound 815, N-((1R,3R,5S)-8-(((1s,4S)-4-aminocyclohexyl)sulfonyl)-8-azabicyclo[3.2.1]octan-3-yl)-5-ethylisoxazole-3-carboxamide] | 52.6 | 2.78 |
| C[C@@H](C1CCN(C)CC1)S(=O)(=O)N1[C@@H]2CC[C@H]1C[C@@H](NC(=O)c1cc(C3CC3)on1)C2 [compound 816, 5-cyclopropyl-N-((1R,3S,5S)-8-(((S)-1-(1-methylpiperidin-4-yl)ethyl)sulfonyl)-8-azabicyclo[3.2.1]octan-3-yl)isoxazole-3-carboxamide] | 52.3 | 2.91 |
| O=C(N[C@H]1C[C@H]2CC[C@@H](C1)N2S(=O)(=O)N1CC2CCC(C1)N2)c1cc(C2CC2)on1 [compound 817, N-((1R,3r,5S)-8-((3,8-diazabicyclo[3.2.1]octan-3-yl)sulfonyl)-8-azabicyclo[3.2.1]octan-3-yl)-5-cyclopropylisoxazole-3-carboxamide] | 34.8 | 3.11 |
| CC(C)CN1CCC2(CC1)CN(S(=O)(=O)N1[C@@H]3CC[C@H]1C[C@@H](NC(=O)c1cc(C4CC4)on1)C3)C2 [compound 818, 5-cyclopropyl-N-((1R,3r,5S)-8-((7-isobutyl-2,7-diazaspiro[3.5]nonan-2-yl)sulfonyl)-8-azabicyclo[3.2.1]octan-3-yl)isoxazole-3-carboxamide] | 55.4 | 3.13 |
| C[C@H]1C[C@@H](NC(=O)c2cc(C3CC3)on2)CCN1S(=O)(=O)C[C@@H]1CCC[C@@H](N)C1 [compound 819, N-((2S,4S)-1-((((1R,3R)-3-aminocyclohexyl)methyl)sulfonyl)-2-methylpiperidin-4-yl)-5-cyclopropylisoxazole-3-carboxamide] | 124 | 3.2 |
| CN(CCO)C1CCN(S(=O)(=O)N2[C@@H]3CC[C@H]2C[C@@H](NC(=O)c2cc(C4CC4)on2)C3)CC1 [compound 820, 5-cyclopropyl-N-((1R,3r,5S)-8-((4-((2-hydroxyethyl)(methyl)amino)piperidin-1-yl)sulfonyl)-8-azabicyclo[3.2.1]octan-3-yl)isoxazole-3-carboxamide] | 57.4 | 3.27 |
| CC(C)CCNC1CCN(S(=O)(=O)N2[C@@H]3CC[C@H]2C[C@@H](NC(=O)c2cc(C4CC4)on2)C3)CC1 [compound 821, 5-cyclopropyl-N-((1R,3r,5S)-8-((4-(isopentylamino)piperidin-1-yl)sulfonyl)-8-azabicyclo[3.2.1]octan-3-yl)isoxazole-3-carboxamide] | 58.5 | 3.28 |

— US10577363B2, “Substituted piperidine compounds” (EPIZYME, INC., priority 2014, dated 2020)
